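The concentration for 50% growth inhibition is given as GI50. TGI: concentration producing complete growth inhibition.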
Experiments:
Assay in all cases: growth of human tumour cells (NCI), 384-well format
SK-MEL-28 melanoma = system: SK-MEL-28 melanoma
SK-OV-3 ovarian = system: SK-OV-3 ovarian
SNB-19 CNS = system: SNB-19 CNS
MOLT-4 leukemia = system: MOLT-4 leukemia
HL-60(TB) leukemia = system: HL-60(TB) leukemia
OVCAR-8 ovarian = system: OVCAR-8 ovarian
SF-295 CNS = system: SF-295 CNS
NCI-H460 NSCLC = system: NCI-H460 NSCLC
BT-549 breast = system: BT-549 breast
MCF7 breast = system: MCF7 breast
PC-3 prostate = system: PC-3 prostate
HT29 colon = system: HT29 colon
IGROV1 ovarian = system: IGROV1 ovarian
EKVX NSCLC = system: EKVX NSCLC
M14 melanoma = system: M14 melanoma
SW-620 colon = system: SW-620 colon
SF-268 CNS = system: SF-268 CNS
MALME-3M melanoma = system: MALME-3M melanoma
ACHN renal = system: ACHN renal
TK-10 renal = system: TK-10 renal
HCT-15 colon = system: HCT-15 colon
CAKI-1 renal = system: CAKI-1 renal
A549 NSCLC = system: A549 NSCLC
COLO 205 colon = system: COLO 205 colon
UO-31 renal = system: UO-31 renal
RXF 393 renal = system: RXF 393 renal
RPMI-8226 leukemia = system: RPMI-8226 leukemia
K-562 leukemia = system: K-562 leukemia
CCRF-CEM leukemia = system: CCRF-CEM leukemia
SK-MEL-5 melanoma = system: SK-MEL-5 melanoma
HOP-92 NSCLC = system: HOP-92 NSCLC
A498 renal = system: A498 renal
HCC-2998 colon = system: HCC-2998 colon
DU-145 prostate = system: DU-145 prostate
NCI-H226 lung = system: NCI-H226 lung
SNB-75 CNS = system: SNB-75 CNS
UACC-62 melanoma = system: UACC-62 melanoma
HS 578T breast = system: HS 578T breast
SN12C renal = system: SN12C renal
OVCAR-4 ovarian = system: OVCAR-4 ovarian
U251 glioblastoma = system: U251 glioblastoma
OVCAR-5 ovarian = system: OVCAR-5 ovarian
NCI-H23 lung = system: NCI-H23 lung
NCI/ADR-RES ovarian = system: NCI/ADR-RES ovarian
LOX IMVI melanoma = system: LOX IMVI melanoma
UACC-257 melanoma = system: UACC-257 melanoma
SF-539 CNS = system: SF-539 CNS
NCI-H322M lung = system: NCI-H322M lung
MDA-MB-468 breast = system: MDA-MB-468 breast
HOP-62 NSCLC = system: HOP-62 NSCLC
SR leukemia = system: SR leukemia
OVCAR-3 ovarian = system: OVCAR-3 ovarian
NCI-H522 lung = system: NCI-H522 lung
786-0 renal = system: 786-0 renal
MDA-MB-231 breast = system: MDA-MB-231 breast
T-47D breast = system: T-47D breast
KM12 colon = system: KM12 colon
MDA-MB-435 melanoma = system: MDA-MB-435 melanoma

Work on `Cc1sc2c(c1C)C(c1ccc(Cl)cc1)=N[C@@H](CC(=O)OC(C)(C)C)c1nnc(C)n1-2` yielded a GI50 (SK-MEL-28 melanoma) of 448 nM, a TGI (SK-MEL-28 melanoma) of 16.7 µM and a GI50 (SK-OV-3 ovarian) of 142 nM. It also gave a TGI (SK-OV-3 ovarian) of 6.78 µM, a GI50 (SNB-19 CNS) of 371 nM and a TGI (SNB-19 CNS) of 16.2 µM. For the same compound, the GI50 (MOLT-4 leukemia) was 201 nM, the TGI (MOLT-4 leukemia) was 1170 nM and the GI50 (HL-60(TB) leukemia) was 23.3 nM. For the same compound, the TGI (HL-60(TB) leukemia) was 73.2 nM, the GI50 (OVCAR-8 ovarian) was 91.7 nM and the TGI (OVCAR-8 ovarian) was 1750 nM. For the same compound, the GI50 (SF-295 CNS) was 815 nM, the TGI (SF-295 CNS) was 17.3 µM and the GI50 (NCI-H460 NSCLC) was 1040 nM. For the same compound, the TGI (NCI-H460 NSCLC) was 15 µM, the GI50 (BT-549 breast) was 51 nM and the TGI (BT-549 breast) was 869 nM. It also gave a GI50 (MCF7 breast) of 38.3 nM, a TGI (MCF7 breast) of 10.3 µM and a GI50 (PC-3 prostate) of 744 nM. The TGI (PC-3 prostate) was 16.5 µM, the GI50 (HT29 colon) was 82 nM and the TGI (HT29 colon) was 12.6 µM. It also gave a GI50 (IGROV1 ovarian) of 160 nM, a TGI (IGROV1 ovarian) of 1190 nM and a GI50 (EKVX NSCLC) of 4.61 µM. It also gave a TGI (EKVX NSCLC) of 20.5 µM, a GI50 (M14 melanoma) of 447 nM and a TGI (M14 melanoma) of 17.5 µM. It also gave a GI50 (SW-620 colon) of 10.1 µM, a TGI (SW-620 colon) of 21.8 µM and a GI50 (SF-268 CNS) of 984 nM. The TGI (SF-268 CNS) was 19.3 µM, the GI50 (MALME-3M melanoma) was 96.7 nM and the TGI (MALME-3M melanoma) was 2330 nM. The GI50 (ACHN renal) was 560 nM, the TGI (ACHN renal) was 16.9 µM and the GI50 (TK-10 renal) was 91.5 nM. The TGI (TK-10 renal) was 8.29 µM, the GI50 (HCT-15 colon) was 48.4 nM and the TGI (HCT-15 colon) was 371 nM. For the same compound, the GI50 (CAKI-1 renal) was 53.9 nM, the TGI (CAKI-1 renal) was 13 µM and the GI50 (A549 NSCLC) was 177 nM. For the same compound, the TGI (A549 NSCLC) was 13.6 µM, the GI50 (COLO 205 colon) was 100 nM and the TGI (COLO 205 colon) was 11.5 µM. The GI50 (UO-31 renal) was 837 nM, the TGI (UO-31 renal) was 20.6 µM and the GI50 (RXF 393 renal) was 1140 nM. For the same compound, the TGI (RXF 393 renal) was 17.5 µM, the GI50 (RPMI-8226 leukemia) was 26.8 nM and the TGI (RPMI-8226 leukemia) was 74.7 nM. For the same compound, the GI50 (K-562 leukemia) was 139 nM, the TGI (K-562 leukemia) was 13.5 µM and the GI50 (CCRF-CEM leukemia) was 230 nM. The TGI (CCRF-CEM leukemia) was 1680 nM, the GI50 (SK-MEL-5 melanoma) was 96.4 nM and the TGI (SK-MEL-5 melanoma) was 1910 nM. The GI50 (HOP-92 NSCLC) was 74.4 nM, the TGI (HOP-92 NSCLC) was 13.6 µM and the GI50 (A498 renal) was 197 nM. For the same compound, the TGI (A498 renal) was 9.7 µM, the GI50 (HCC-2998 colon) was 94.6 nM and the TGI (HCC-2998 colon) was 394 nM. It also gave a GI50 (DU-145 prostate) of 2220 nM, a TGI (DU-145 prostate) of 20.1 µM and a GI50 (NCI-H226 lung) of 106 nM. For the same compound, the TGI (NCI-H226 lung) was 12.3 µM, the GI50 (SNB-75 CNS) was 634 nM and the TGI (SNB-75 CNS) was 19.1 µM. It also gave a GI50 (UACC-62 melanoma) of 43 nM, a TGI (UACC-62 melanoma) of 10.5 µM and a GI50 (HS 578T breast) of 30.7 nM. The TGI (HS 578T breast) was 266 nM, the GI50 (SN12C renal) was 3.26 µM and the TGI (SN12C renal) was 19.9 µM. It also gave a GI50 (OVCAR-4 ovarian) of 42.1 nM, a TGI (OVCAR-4 ovarian) of 254 nM and a GI50 (U251 glioblastoma) of 1170 nM. It also gave a TGI (U251 glioblastoma) of 17.9 µM, a GI50 (OVCAR-5 ovarian) of 183 nM and a TGI (OVCAR-5 ovarian) of 14.5 µM. For the same compound, the GI50 (NCI-H23 lung) was 148 nM, the TGI (NCI-H23 lung) was 3.5 µM and the GI50 (NCI/ADR-RES ovarian) was 80.5 nM. It also gave a TGI (NCI/ADR-RES ovarian) of 839 nM, a GI50 (LOX IMVI melanoma) of 57.3 nM and a TGI (LOX IMVI melanoma) of 223 nM. For the same compound, the GI50 (UACC-257 melanoma) was 58.1 nM, the TGI (UACC-257 melanoma) was 1940 nM and the GI50 (SF-539 CNS) was 286 nM. For the same compound, the TGI (SF-539 CNS) was 12.9 µM, the GI50 (NCI-H322M lung) was 241 nM and the TGI (NCI-H322M lung) was 14.6 µM. It also gave a GI50 (MDA-MB-468 breast) of 37.3 nM, a TGI (MDA-MB-468 breast) of 109 nM and a GI50 (HOP-62 NSCLC) of 71.9 nM. It also gave a TGI (HOP-62 NSCLC) of 10.9 µM, a GI50 (SR leukemia) of 27.3 nM and a TGI (SR leukemia) of 252 nM. The GI50 (OVCAR-3 ovarian) was 86 nM, the TGI (OVCAR-3 ovarian) was 1070 nM and the GI50 (NCI-H522 lung) was 56 nM. The TGI (NCI-H522 lung) was 434 nM, the GI50 ([…]-0 renal) was 118 nM and the TGI (786-0 renal) was 13.8 µM. The GI50 (MDA-MB-231 breast) was 57.7 nM, the TGI (MDA-MB-231 breast) was 13.7 µM and the GI50 (T-47D breast) was 293 nM. For the same compound, the TGI (T-47D breast) was 13.2 µM, the GI50 (KM12 colon) was 322 nM and the TGI (KM12 colon) was 13.2 µM. For the same compound, the GI50 (MDA-MB-435 melanoma) was 599 nM and the TGI (MDA-MB-435 melanoma) was 10.7 µM.

Source: PubChem BioAssay (NCI)
